# From patent publication US20250099420A1, “SMALL MOLECULE MODULATORS OF GPR139 COMPLEX” (University of Florida Research Foundation, Incorporated, priority 2022, published 2025)
# Where two headings read alike, the source gives them in different places.
# Key:
# parental HEK cells = test: HEK parental Agonist Counterscreen Assay (non-transfected cells); type: cell-based; conditions: for Averaged Max % Response (±St. Dev.): activity relative to known control
# Text: The high control for the agonist counterscreen was Forskolin not acetylcholine.
# GPR139 = molecular target: T1, GPR139 (Homo sapiens, UniProt Q6DWJ6); test: GPR139 Agonist titration / agonist counterscreen assay (calcium detection, HEK-GPR139 cells); type: cell-based; set-up: expressed in transfected cells; host or cells: HEK Aequorin cells, Maxcyte transient transfection; conditions: GPR139 Agonist Activity; for Averaged Max % Response (±St. Dev.): activity relative to known control; for EC50: read-out: EC50
# T1 sequence (Q6DWJ6 1-353): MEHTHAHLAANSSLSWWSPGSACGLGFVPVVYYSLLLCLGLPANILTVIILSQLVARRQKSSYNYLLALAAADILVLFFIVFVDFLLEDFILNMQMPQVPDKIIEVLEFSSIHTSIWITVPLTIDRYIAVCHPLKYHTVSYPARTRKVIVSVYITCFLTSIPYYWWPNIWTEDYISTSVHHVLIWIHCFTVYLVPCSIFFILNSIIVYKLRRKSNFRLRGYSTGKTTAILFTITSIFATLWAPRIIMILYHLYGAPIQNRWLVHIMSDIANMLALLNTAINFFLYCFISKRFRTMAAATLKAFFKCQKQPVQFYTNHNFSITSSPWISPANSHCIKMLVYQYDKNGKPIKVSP
# Procedure: GPR activity was assessed using a calcium detection assay. […] Negative control samples were treated with DMSO. […] Intracellular calcium was measured using Calcium 5.
# [1] = Homo sapiens, HEK293, HEK Agonist Activity, parental non-transfected HEK cells
# [2] = values printed in E-notation without unit
# [3] = Homo sapiens, HEK293, HEK Agonist Activity section of Table 4 (parental HEK counterscreen)
# [4] = HEK Agonist Activity section of Table 4 (parental HEK counterscreen)
SMILES,Lipophilic Efficiency (logD) (parental HEK cells; HEK Agonist Activity),Lipophilic Efficiency (logP) (parental HEK cells; HEK Agonist Activity),Averaged Max % Response (±St. Dev.) (parental HEK cells; HEK Agonist Activity),EC50 (parental HEK cells; [1]),Averaged Max % Response (±St. Dev.) (GPR139),Lipophilic Efficiency (logD) (GPR139; based on logD),Lipophilic Efficiency (logP) (GPR139; based on logP),Hill Slope (GPR139; fitted dose-response curve),Efficiency Ligand (GPR139; ligand efficiency),EC50 (GPR139; [2]),Lipophilic Efficiency (logD) (parental HEK cells; HEK Agonist Activity section),Lipophilic Efficiency (logP) (parental HEK cells; HEK Agonist Activity section),Averaged Max % Response (±St. Dev.) (parental HEK cells; HEK Agonist Activity section),EC50 (parental HEK cells; [3]),EC50 (parental HEK cells; [4]),Efficiency Ligand (GPR139),Hill Slope (GPR139),Lipophilic Efficiency (logD) (GPR139),Lipophilic Efficiency (logP) (GPR139),EC50 (GPR139; HEK-GPR139 cells)
O=C(CN1CCN(Cc2ccccc2Cl)C1=O)NCc1ccccc1Cl [SR-01000125458],1.94,1.94,−1.02 ± 2.16%,> 14.1 µM,119.40 ± 41.91%,4.54,4.54,0.73,0.40,0.0358 µM,,,,,,,,,,
Nc1c(Cl)c(Cl)nc(C(=O)OCC(=O)NCc2ccccc2)c1Cl [SR-01000073564],,,,,129.62 ± 8.33%,4.46,4.46,0.59,0.42,0.0586 µM,2.07,2.07,8.96 ± 14.03%,> 14.5 µM,,,,,,
O=C(Cn1cc2c(n1)CCCCC2)NCCCc1ccccc1 [SR-01000088420],,,,,100.76 ± 18.47%,3.28,3.28,1.29,0.41,0.157 µM,1.33,1.33,12.56 ± 5.54%,,> 14.1 µM,,,,,
CC1(c2ccc3ccccc3c2)NC(=O)C(CC(=O)NCc2ccco2)C1=O (stereo not shown) [SR-01000058120],2.18,2.18,11.91 ± 6.77%,> 14.3 µM,103.66 ± 2.94%,4.73,4.73,0.17,0.37,0.0405 µM,,,,,,,,,,
O=C(CSc1ccc(Cl)cc1)Nc1nnc(-c2ccco2)o1 [SR-01000021433],,,,,111.88 ± 11.27%,4.59,4.59,0.56,0.45,0.0718 µM,2.29,2.29,27.04 ± 4.04%,> 14.3 µM,,,,,,
Cc1ccc2c(c1)-c1c(cnn1CC(=O)Nc1ccc(F)cc1)CO2 [SR-01000136273],,,,,78.44 ± 11.98%,,,,,,1.72,1.72,−14.31 ± 5.07%,,> 14.1 µM,0.31,0.56,2.47,2.47,2.5 µM
COC(=O)c1ccc(CNC(=O)Nc2ccc(-c3cn[nH]c3)cc2)cc1.O=C(O)C(F)(F)F [SR-00000005410],,,,,99.92 ± 5.04%,,,,,,2.07,2.07,7.35 ± 2.40%,,> 14.1 µM,0.31,1.14,2.93,2.93,1.9 µM
